Measurements: ChEMBL document CHEMBL5329205, “Development of novel quinoline-NO donor hybrids inducing human breast cancer cells apoptosis via inhibition of topoisomerase I” (Bioorg Med Chem, 2023)
Active and inactive are the calls of the source. The calls are words filed in the database; no cut-off is given here.

What was measured:
[1] = Toxicity in BALB/c mouse xenografted with human MCF7 cells assessed as lung damage at 10 mg/kg, ip administered once every two days for 3 weeks by H and E staining based microscopic analysis; assay type: organism-based; conditions: in vivo, 504 h
MCF7 [2] = assay: Induction of apoptosis in human MCF7 cells assessed as early apoptotic cells at 1.5 uM incubated for 48 hrs by Annexin-V/PI staining based flow cytometry analysis (reference value: 0.3%); assay type: functional
[3] = target: ATP-dependent translocase ABCB1 (Homo sapiens, UniProt P08183); assay: Inhibition of P-glycoprotein mediated Rhodamine-123 transport in human MCF7ADR cells assessed as increase in fluorescence index of rhodamine-123 at 1.5 to 3 uM incubated for 24 hrs by flow cytometry analysis; assay type: cell-based; conditions: dose 1.5-3 µM
HCT-116 = assay: Antiproliferative activity against human HCT-116 cells assessed as inhibition of cell growth incubated for 48 hrs by MTT assay; assay type: functional, cell-based; conditions: HCT-116, 48 h
[4] = Toxicity in BALB/c mouse xenografted with human MCF7 cells assessed as lung damage at 5 mg/kg, ip administered once every two days for 3 weeks by H and E staining based microscopic analysis; assay type: organism-based; conditions: in vivo, 504 h
MCF7 [5] = assay: Induction of apoptosis in human MCF7 cells assessed as viable cells at 3 uM incubated for 48 hrs by Annexin-V/PI staining based flow cytometry analysis (reference value: 99.7%); assay type: functional; conditions: read-out: Activity
[6] = target: T1, DNA topoisomerase 1 (Homo sapiens) (UniProt P11387); assay: Inhibition of human DNA topoisomerase I mediated supercoiled DNA relaxation activity incubated for 30 mins by Ged Red staining based agarose gel electrophoresis analysis; conditions: dose 20-100 µM
T1 sequence (whole entry): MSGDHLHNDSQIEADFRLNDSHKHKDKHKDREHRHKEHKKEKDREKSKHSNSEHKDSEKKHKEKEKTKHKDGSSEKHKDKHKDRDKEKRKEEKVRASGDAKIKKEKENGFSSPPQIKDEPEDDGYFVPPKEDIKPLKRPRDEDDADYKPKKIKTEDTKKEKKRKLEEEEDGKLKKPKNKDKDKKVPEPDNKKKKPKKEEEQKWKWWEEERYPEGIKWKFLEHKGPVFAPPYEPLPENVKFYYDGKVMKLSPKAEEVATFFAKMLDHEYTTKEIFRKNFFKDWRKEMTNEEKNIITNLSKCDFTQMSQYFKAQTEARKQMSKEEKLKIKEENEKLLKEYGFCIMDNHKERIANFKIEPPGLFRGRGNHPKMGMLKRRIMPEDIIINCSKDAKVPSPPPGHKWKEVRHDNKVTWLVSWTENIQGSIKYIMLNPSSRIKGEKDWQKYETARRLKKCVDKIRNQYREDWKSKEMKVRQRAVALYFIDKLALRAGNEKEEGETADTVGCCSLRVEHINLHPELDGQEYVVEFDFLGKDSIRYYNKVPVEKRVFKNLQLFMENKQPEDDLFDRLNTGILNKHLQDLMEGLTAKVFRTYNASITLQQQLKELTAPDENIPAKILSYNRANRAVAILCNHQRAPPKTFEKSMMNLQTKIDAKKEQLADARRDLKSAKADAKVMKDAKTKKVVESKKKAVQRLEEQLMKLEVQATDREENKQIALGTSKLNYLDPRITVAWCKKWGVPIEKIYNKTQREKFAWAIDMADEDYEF

MCF7 [7] = assay: Antitumor activity against human MCF7 cells xenografted in BALB/c nude mouse assessed as reduction in tumor volume at 5 mg/kg, ip administered once every two days for 3 weeks; assay type: functional, organism-based
[8] = Cytotoxicity against human MCF-10A cells assessed as cell growth inhibition measured after 48 hrs by MTT assay; assay type: toxicity, cell-based
[9] = Toxicity in BALB/c mouse xenografted with human MCF7 cells assessed as spleen damage at 5 mg/kg, ip administered once every two days for 3 weeks by H and E staining based microscopic analysis; assay type: organism-based; conditions: in vivo, 504 h
MCF7 [10] = assay: Induction of apoptosis in human MCF7 cells assessed as nucleus fragmentation upto 3 uM incubated for 48 hrs by Hoechst-33342 staining based fluorescent microscopic analysis; assay type: functional, cell-based
[11] = Toxicity in BALB/c nude mouse xenografted with human MCF7 cells assessed as heart damage at 5 mg/kg, ip administered once every two days for 3 weeks by H and E staining based microscopic analysis; assay type: organism-based; conditions: in vivo, 504 h
MCF7 [12] = assay: Induction of cell cycle arrest in human MCF7 cells assessed as G2 phase cells at 3 uM incubated for 24 hrs by PI/RNaseA staining based flow cytometry analysis (reference value: 7.67 %); assay type: functional
MCF7 [13] = assay: Induction of apoptosis in human MCF7 cells assessed as upregulation of cleaved caspase-3 expression incubated for 24 hrs by Western blot analysis; assay type: functional, cell-based; conditions: dose 1-4 µM
MCF7 [14] = assay: Induction of cell cycle arrest in human MCF7 cells assessed as G1 phase cells at 3 uM incubated for 24 hrs by PI/RNaseA staining based flow cytometry analysis (reference value: 66.08 %); assay type: functional

Chain of ATP-dependent translocase ABCB1 (P08183 whole entry): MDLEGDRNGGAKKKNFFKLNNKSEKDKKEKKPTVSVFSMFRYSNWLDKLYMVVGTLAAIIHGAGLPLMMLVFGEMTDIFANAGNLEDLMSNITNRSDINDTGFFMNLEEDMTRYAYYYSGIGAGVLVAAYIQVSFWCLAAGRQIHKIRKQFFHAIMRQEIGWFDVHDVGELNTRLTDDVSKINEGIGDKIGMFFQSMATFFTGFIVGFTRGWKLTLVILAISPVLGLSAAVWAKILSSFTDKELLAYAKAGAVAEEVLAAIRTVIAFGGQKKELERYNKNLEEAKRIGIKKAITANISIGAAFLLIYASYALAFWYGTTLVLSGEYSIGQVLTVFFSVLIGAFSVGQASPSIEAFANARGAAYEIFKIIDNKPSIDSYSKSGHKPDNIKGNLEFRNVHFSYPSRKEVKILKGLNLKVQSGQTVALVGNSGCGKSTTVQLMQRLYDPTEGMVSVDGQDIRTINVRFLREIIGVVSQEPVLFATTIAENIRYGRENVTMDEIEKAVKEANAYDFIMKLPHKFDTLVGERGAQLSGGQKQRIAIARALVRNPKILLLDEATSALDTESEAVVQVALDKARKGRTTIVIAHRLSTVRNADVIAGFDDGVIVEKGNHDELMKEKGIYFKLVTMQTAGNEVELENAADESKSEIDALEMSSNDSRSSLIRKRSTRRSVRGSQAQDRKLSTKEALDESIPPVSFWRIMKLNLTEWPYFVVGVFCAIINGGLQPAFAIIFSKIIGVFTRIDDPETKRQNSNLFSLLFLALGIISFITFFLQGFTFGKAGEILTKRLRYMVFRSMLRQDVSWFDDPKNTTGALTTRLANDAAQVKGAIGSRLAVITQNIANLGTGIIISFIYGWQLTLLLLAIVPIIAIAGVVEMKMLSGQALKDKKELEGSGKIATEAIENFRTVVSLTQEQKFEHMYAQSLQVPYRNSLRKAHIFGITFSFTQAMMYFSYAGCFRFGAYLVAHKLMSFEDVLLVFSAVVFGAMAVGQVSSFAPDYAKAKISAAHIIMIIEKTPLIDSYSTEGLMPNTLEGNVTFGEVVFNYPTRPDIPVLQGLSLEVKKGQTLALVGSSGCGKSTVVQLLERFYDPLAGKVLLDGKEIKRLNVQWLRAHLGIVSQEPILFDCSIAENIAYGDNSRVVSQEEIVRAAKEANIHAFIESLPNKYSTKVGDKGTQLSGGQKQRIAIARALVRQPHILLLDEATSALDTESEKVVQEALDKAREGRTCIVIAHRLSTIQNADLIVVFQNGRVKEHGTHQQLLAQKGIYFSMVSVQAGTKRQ

- inhibition (INH) [3]: Active
- IC50 (HCT-116): 2.48 µM
- inhibition [6]: Dose-Dependent Effect
SMILES: COc1cc(-c2cc(C(=O)OCCCCCOc3no[n+]([O-])c3S(=O)(=O)c3ccccc3)c3ccccc3n2)cc(OC)c1OC
- Activity [1]: Non-Toxic
- Activity (MCF7 [2]): 13.2%
- Activity [4]: Non-Toxic
- viability at 3 µM (MCF7 [5]): 34.4%
- Activity (MCF7 [7]): Active
- IC50 at 48 h [8]: 26.9 µM
- Activity [9]: Non-Toxic
- Activity (MCF7 [10]): Active
- Activity [11]: Non-Toxic
- Activity (MCF7 [12]): 23.52%
- Activity (MCF7 [13]): Dose-Dependent Effect
- Activity (MCF7 [14]): 58.98%
